Assay [1] addresses T1, Neutrophil elastase (Homo sapiens) (UniProt P08246).
T1 sequence (whole entry): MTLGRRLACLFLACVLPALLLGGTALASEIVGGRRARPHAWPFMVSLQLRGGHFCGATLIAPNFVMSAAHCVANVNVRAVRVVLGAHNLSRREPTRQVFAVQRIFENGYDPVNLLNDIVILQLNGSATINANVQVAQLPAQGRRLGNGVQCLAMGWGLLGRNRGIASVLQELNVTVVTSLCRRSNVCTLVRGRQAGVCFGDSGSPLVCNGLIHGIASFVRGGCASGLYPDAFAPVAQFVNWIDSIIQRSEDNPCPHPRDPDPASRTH
The assay is described as follows: Specificity constant on human neutrophil elastase was determined at 18 percent and at 26 minutes for maximum inhibition and no enzyme activity was recovered over the 2 h-time.

The target in assay [2] is T1, Neutrophil elastase (Homo sapiens). The assay is described as follows: Rate constant of acylation on human neutrophil elastase was determined at 18 percent and at 26 minutes for maximum inhibition and no enzyme activity was recovered over the 2 h-time.
Assay [3] shares this target. Description: Binding constant on human neutrophil elastase was determined at 18 percent and at 26 minutes for maximum inhibition and no enzyme activity was recovered over the 2 h-time.
Assay [4] deals with T2, Chymotrypsin-like elastase family member 2A (Sus scrofa) (UniProt P08419).
T2 sequence (whole entry): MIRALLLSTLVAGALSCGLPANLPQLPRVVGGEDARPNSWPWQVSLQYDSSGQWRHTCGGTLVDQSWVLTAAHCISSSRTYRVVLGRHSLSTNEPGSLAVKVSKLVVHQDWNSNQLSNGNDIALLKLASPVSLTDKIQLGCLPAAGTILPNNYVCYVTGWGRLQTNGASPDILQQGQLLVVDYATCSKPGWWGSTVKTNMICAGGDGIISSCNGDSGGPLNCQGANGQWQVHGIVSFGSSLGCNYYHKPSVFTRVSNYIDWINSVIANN
The assay is described as follows: Rate constant of acylation on porcine pancreatic elastase was determined at 60 percent and at 30 minutes for maximum inhibition and no enzyme activity was recovered over the 2 h-time.

Assay [5] deals with T2, Chymotrypsin-like elastase family member 2A (Sus scrofa). Description: Specificity constant on porcine pancreatic elastase was determined at 60 percent and at 30 minutes for maximum inhibition and no enzyme activity was recovered over the 2 h-time.
For assay [6] the target is unchanged. Description: Binding constant on porcine pancreatic elastase was determined at 60 percent and at 30 minutes for maximum inhibition and no enzyme activity was recovered over the 2 h-time.
Assay [7] has as its target T1, Neutrophil elastase (Homo sapiens). Description: Specificity constant on human neutrophil elastase was determined at 20 percent and at 99 minutes for maximum inhibition and no enzyme activity was recovered over the 2 h-time.
Assay [8] shares this target. Description: Rate constant of acylation on human neutrophil elastase was determined at 20 percent and at 99 minutes for maximum inhibition and no enzyme activity was recovered over the 2 h-time.
For assay [9] the target is unchanged. Description: Binding constant on human neutrophil elastase was determined at 20 percent and at 99 minutes for maximum inhibition and no enzyme activity was recovered over the 2 h-time.
For assay [10], the target named is T2, Chymotrypsin-like elastase family member 2A (Sus scrofa). The assay is described as follows: Rate constant of acylation on porcine pancreatic elastase was determined at 30 percent and at 99 minutes for maximum inhibition and no enzyme activity was recovered over the 2 h-time.
For assay [11] the target is unchanged. Description: Specificity constant on porcine pancreatic elastase was determined at 30 percent and at 99 minutes for maximum inhibition and no enzyme activity was recovered over the 2 h-time.
For assay [12], the target named is T3, Serine protease 1 (Homo sapiens, UniProt P07477). The assay is described as follows: Binding constant on trypsin was determined.
For assay [13], the target named is T3, Serine protease 1. The assay is described as follows: Rate constant of acylation on trypsin was determined.
Assay [14] has as its target T3, Serine protease 1. Description: Specificity constant on trypsin was determined.
The target of assay [15] is Chymotrypsinogen A (Bos taurus) (UniProt P00766). Description: Binding constant on alpha-chymotrypsin was determined.
Assay [16] has the same target. Description: Rate constant of acylation on alpha-chymotrypsin was determined.
The target is the same in assay [17]. The assay is described as follows: Specificity constant on alpha-chymotrypsin was determined.
Assay [18] addresses T2, Chymotrypsin-like elastase family member 2A (Sus scrofa). Description: Binding constant on porcine pancreatic elastase was determined at 30 percent and at 99 minutes for maximum inhibition and no enzyme activity was recovered over the 2 h-time.
Assay [19] concerns the target T4, Plasminogen (Homo sapiens, UniProt P00747). The assay is described as follows: Rate constant of acylation on plasmin was determined at 0 percent and at 95 minutes for maximum inhibition and no enzyme activity was recovered over the 2 h-time.
Assay [20] has as its target T4, Plasminogen. The assay is described as follows: Specificity constant on plasmin was determined at 0 percent and at 95 minutes for maximum inhibition and no enzyme activity was recovered over the 2 h-time.
In assay [21] the target is T4, Plasminogen. Description: Binding constant on plasmin was determined at 0 percent and at 95 minutes for maximum inhibition and no enzyme activity was recovered over the 2 h-time.
The target of assay [22] is T5, Urokinase-type plasminogen activator (Homo sapiens, UniProt P00749). The assay is described as follows: Binding constant on Urokinase-type plasminogen activator was determined at 0 percent and at 98 minutes for maximum inhibition and no enzyme activity was recovered over the 2 h-time.
Assay [23] concerns the target T6, Prothrombin (Homo sapiens, UniProt P00734). The assay is described as follows: Binding constant on thrombin was determined at 0 percent and at 93 minutes for maximum inhibition and no enzyme activity was recovered over the 2 h-time.
Assay [24] concerns the target T6, Prothrombin. Description: Rate constant of acylation on thrombin was determined at 0 percent and at 93 minutes for maximum inhibition and no enzyme activity was recovered over the 2 h-time.
In assay [25] the target is T6, Prothrombin. Description: Specificity constant on thrombin was determined at 0 percent and at 93 minutes for maximum inhibition and no enzyme activity was recovered over the 2 h-time.
In assay [26] the target is Chymotrypsinogen A (Bos taurus) (UniProt P00766). The assay is described as follows: Specificity constant on alpha-chymotrypsin was determined at 15 percent and at 78 minutes for maximum inhibition and no enzyme activity was recovered over the 2 h-time.
Assay [27] concerns the target T5, Urokinase-type plasminogen activator. Description: Rate constant of acylation on Urokinase-type plasminogen activator […] was determined at 0 percent and at 98 minutes for maximum inhibition and no enzyme activity was recovered over the 2 h-time.
For assay [28] the target is unchanged. Description: Specificity constant on Urokinase-type plasminogen activator was determined at 0 percent and at 98 minutes for maximum inhibition and no enzyme activity was recovered over the 2 h-time.
Assay [29] deals with Chymotrypsinogen A (Bos taurus) (UniProt P00766). The assay is described as follows: Binding constant on alpha-chymotrypsin was determined at 15 percent and at 78 minutes for maximum inhibition and no enzyme activity was recovered over the 2 h-time.
For assay [30] the target is unchanged. The assay is described as follows: Rate constant of acylation on alpha-chymotrypsin was determined at 15 percent and at 78 minutes for maximum inhibition and no enzyme activity was recovered over the 2 h-time.
The target of assay [31] is T4, Plasminogen. The assay is described as follows: Rate constant of deacylation for plasmin; Fast and could not be measured.
Assay [32] deals with T5, Urokinase-type plasminogen activator. Description: Rate constant of deacylation for Urokinase-type plasminogen activator.
In assay [33] the target is T3, Serine protease 1. Description: Rate constant of deacylation for trypsin.

T4 sequence (P00747 97-580 limits assumed): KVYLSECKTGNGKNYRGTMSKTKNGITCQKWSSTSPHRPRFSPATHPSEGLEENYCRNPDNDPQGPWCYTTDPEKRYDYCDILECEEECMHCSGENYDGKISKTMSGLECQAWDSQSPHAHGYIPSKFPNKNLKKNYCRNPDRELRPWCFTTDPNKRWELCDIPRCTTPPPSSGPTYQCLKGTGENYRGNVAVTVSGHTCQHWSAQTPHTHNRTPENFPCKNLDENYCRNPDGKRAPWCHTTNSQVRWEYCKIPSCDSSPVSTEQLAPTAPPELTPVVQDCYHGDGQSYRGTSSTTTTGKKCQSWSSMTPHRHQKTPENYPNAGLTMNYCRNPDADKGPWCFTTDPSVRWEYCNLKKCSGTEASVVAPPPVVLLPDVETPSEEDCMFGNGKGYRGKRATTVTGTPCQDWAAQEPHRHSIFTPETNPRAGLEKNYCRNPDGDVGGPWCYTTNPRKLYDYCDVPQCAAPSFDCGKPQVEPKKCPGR
T4 sequence (P00747 581-810 limits assumed): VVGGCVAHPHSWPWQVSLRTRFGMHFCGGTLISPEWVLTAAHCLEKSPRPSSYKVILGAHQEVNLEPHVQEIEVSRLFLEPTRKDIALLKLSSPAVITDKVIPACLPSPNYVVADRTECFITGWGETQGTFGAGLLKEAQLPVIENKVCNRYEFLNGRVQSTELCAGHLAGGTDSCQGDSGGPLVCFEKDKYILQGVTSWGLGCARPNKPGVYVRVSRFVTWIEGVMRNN
T3 sequence (P07477 whole entry): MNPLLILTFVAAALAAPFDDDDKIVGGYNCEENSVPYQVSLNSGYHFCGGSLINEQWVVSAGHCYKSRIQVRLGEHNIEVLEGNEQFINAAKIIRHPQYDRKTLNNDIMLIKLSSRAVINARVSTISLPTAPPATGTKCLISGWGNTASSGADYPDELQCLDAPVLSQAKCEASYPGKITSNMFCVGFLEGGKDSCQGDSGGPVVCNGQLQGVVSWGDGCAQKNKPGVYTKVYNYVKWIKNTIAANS

`CC1(C)CC(=O)O/C(=C/Br)C1`: the ka/Ki stood at 667 M⁻¹ s⁻¹ in [1] and 33.3 M⁻¹ s⁻¹ in assay [5]. Also, the results for the ka in [2] and in assay [4] were 1.8 min⁻¹ and 0.43 min⁻¹, respectively. Besides, the Ks/i in [3] amounted to 43.5 µM; in assay [6], 284 µM.
Turning to `CC(C)C1CC/C(=C/Br)OC1=O` (stereo not drawn), the ka/Ki in assay [7] was found to be 37500 M⁻¹ s⁻¹; in assay [11], 83.3 M⁻¹ s⁻¹; on Serine protease 1 [14], 667 M⁻¹ s⁻¹; in [17], 11700 M⁻¹ s⁻¹. The ka was found to be 0.18 min⁻¹ in assay [8], 0.28 min⁻¹ in assay [10], 2.4 min⁻¹ on Serine protease 1 [13] and 1.6 min⁻¹ in assay [16]. For the same compound, the Ks/i in assay [9] was determined as 0.08 µM; at Serine protease 1 [12], 65 µM; in assay [15], 2.3 µM; in [18], 58.8 µM.
Consider `N=C(N)Nc1ccc(C2CC/C(=C\I)OC2=O)cc1` (stereo not drawn), for which the ka on Plasminogen [19] stood at 13.6 min⁻¹; on Prothrombin [24], 12.9 min⁻¹; in [27], 18.6 min⁻¹; in assay [30], 7.22 min⁻¹. In addition, the ka/Ki on Plasminogen [20] was 7.55e+06 M⁻¹ s⁻¹; on Prothrombin [25] it was 233000 M⁻¹ s⁻¹; in [26], 50000 M⁻¹ s⁻¹; in assay [28], 1.95e+06 M⁻¹ s⁻¹. Moreover, the Ks/i at Plasminogen [21] amounted to 0.03 µM; in [22], 0.16 µM; at Prothrombin [23] it was 0.93 µM; in [29], 2.4 µM.
Take `C=C1CC(c2ccc(NC(=N)N)cc2)CC(=O)O1` (stereo not drawn): the Kd result on Plasminogen [31] was “Not measurable”; in assay [32], 0.00015 s⁻¹; on Serine protease 1 [33], 3.3e-05 s⁻¹.

Values taken from ChEMBL document CHEMBL1126229, “Enol lactone derivatives as inhibitors of human neutrophil elastase and trypsin-like proteases” (Bioorg Med Chem Lett, 1992).
